Where “and” joins values, the source holds several entries; their conditions need not be identical. Identical values can stand only once. Entries after “also recorded” stand apart in the source; their conditions may differ.
Key:
hOR17-4 [1] = molecular target: T1, hOR17-4 (Homo sapiens, UniProt P34982, R25Q); experiment: Intracellular calcium-ion mobility assay in induced HEK293S cells; format: cell-based; design: of which 969 by code for the 323 amino acid hOR17-4-GlyGly-rho1D4 protein; made in house; conditions: for cytosolic Ca2+ response to odorant: Fura-Red
T1 sequence (P34982 with tags, fused parts or gaps R25Q): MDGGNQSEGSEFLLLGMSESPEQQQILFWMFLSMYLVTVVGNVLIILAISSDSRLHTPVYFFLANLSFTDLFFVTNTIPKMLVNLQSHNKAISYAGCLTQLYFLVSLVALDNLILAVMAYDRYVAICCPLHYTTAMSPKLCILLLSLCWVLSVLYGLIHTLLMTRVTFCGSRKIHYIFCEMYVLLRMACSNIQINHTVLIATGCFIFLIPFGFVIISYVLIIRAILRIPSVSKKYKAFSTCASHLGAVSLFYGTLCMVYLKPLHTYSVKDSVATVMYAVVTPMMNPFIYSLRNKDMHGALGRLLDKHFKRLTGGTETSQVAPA
Experimental: To determine if receptors expressed at the surface of induced HEK293S rho5 cells was functional, we performed calcium-influx assays. In our heterologous HEK293S system, olfactory receptors can signal through the inositol triphosphate (IP3) pathway to release intracellular Ca2+, using the “promiscuous” G-protein Gαq.
HEK293S rho5 cells were seeded and grown on glass coverslips until they reached 80-90% confluency. Expression of hOR17-4 was then induced with media containing tetracycline (1 μg/ml) for 48 hours. Cells were then washed with PBS and loaded with the calcium sensitive dye Fluo-3 (Invitrogen) according to the manufacturers instructions. Coverslips were then mounted and visualized using time-lapse confocal microscopy. Experiments were conducted in PBS and odorant stocks were added by hand using a pipettor to final concentrations between 1-100 μM. Both specific and non-specific odorants were tested. As an additional control to test whether cells could increase internal calcium levels, 1 mM ATP was added.
The functional activity and specificity of hOR17-4 was probed in heterologous HEK293S cells by monitoring intracellular calcium-ion concentrations using time-lapse confocal microscopy (19). In our HEK293S cells, olfactory receptors can signal through the inositol triphosphate (IP3) pathway to release intracellular Ca^2+ from the ER, mediated by the “promiscuous” G-protein Gαq. Induced cells responded to the specific odorant bourgeonal at concentrations as low as 1 μM (FIG. 28). […] Importantly, nearly 100% of the cells were responsive to bourgeonal due to the stable-inducible nature of this system, a vast improvement over expression methods that relied on transient transfection with less than 5% of cells being responsive (3).
hOR17-4 expression in the stable HEK293S cell line was induced by 48-hour incubation in DMEM/F12 medium with GlutaMAX, supplemented with 1 μg/ml tetracycline. Then cells were loaded at 37° C. for 30 min with […] Fura-Red-AM (Molecular Probes) in serum-free DMEM/F12 medium and were subsequently washed with PBS and incubated in DMEM/F12 medium containing 10% FCS for 30 min to allow complete hydrolysis of intracellular Fura-Red-AM. Cytosolic Ca^2+ responses were recorded by confocal fluorescence microscopy (Zeiss LSM 510) using a water immersion objective (Zeiss Achroplan 63×, NA 1.2). Excitation was at 488 nm (Ar^+ laser); the 650 nm long pass emission filter was used to image Fura-Red at a rate of 1 image per second. Stock solutions of the tested odorants were prepared freshly in DMSO and diluted 1000-fold into PBS to give the desired concentrations.

hOR17-4 [2] = molecular target: T1, hOR17-4; experiment: Surface plasmon resonance (Biacore A100) odorant binding assay, detergent-solubilized receptor from HEK293S cells; design: of which 969 by code for the 323 amino acid hOR17-4-GlyGly-rho1D4 protein; made in house; lysate supernatant captured on the chip; conditions: not rigorously determined due to low odorant solubility above 40 μM
Source text: First, the rho1D4 mAb was covalently attached to the dextran surface of a Biacore CM4 chip using standard amine-coupling chemistry. The hOR17-4 receptor protein was then non-covalently captured on the antibody via its C-terminal rho tag (TETSQVAPA (SEQ ID NO: 50)). Odorant ligands were then applied and odorant binding detected in real time via the mass-based refractive index change. […] Low affinity Biacore data is typically characterized by fast on- and off-rates, where curvature in the association and dissociation phase may not be observable. […] However, the sensorgram data shown reinforces the prediction of low, micromolar affinities for the two odorants.
All odorant binding experiments were performed at 25° C. on a Biacore™ A100 (GE Healthcare), which has a parallel flow configuration, allowing assay development (e.g., solubilization conditions) to be tested and optimized in parallel and multiplexed format. The sensor chip CM4, amine-coupling kit, HBS (10 mM Hepes, 0.15 M NaCl, pH 7.4) and PBS were from GE Healthcare. The detailed protocol (see Supporting Information) was adapted, with several key modifications, from that previously reported by Kaiser et al. (25). […]

hOR17-4 [3] = molecular target: T2, hOR17-4 (Homo sapiens, UniProt P34982); experiment: Surface plasmon resonance (Biacore T100) odorant binding assay, cell-free produced receptor
T2 construct: made in house; host or cells: wheat germ cell-free extract (Roche RTS Wheat Germ CECF kit)
T2 sequence (P34982 1-312): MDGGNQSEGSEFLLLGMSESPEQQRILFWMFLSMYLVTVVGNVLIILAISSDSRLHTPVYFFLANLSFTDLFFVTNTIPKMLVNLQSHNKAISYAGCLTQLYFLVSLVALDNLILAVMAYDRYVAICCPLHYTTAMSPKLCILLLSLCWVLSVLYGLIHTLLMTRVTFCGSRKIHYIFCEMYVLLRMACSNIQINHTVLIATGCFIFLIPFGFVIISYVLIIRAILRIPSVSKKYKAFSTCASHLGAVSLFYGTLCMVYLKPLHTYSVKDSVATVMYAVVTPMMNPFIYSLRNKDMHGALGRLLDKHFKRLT
Experimental: All odorant binding experiments were performed on a Biacore™ T100 (GE Healthcare, Uppsala, Sweden) at 25° C. The sensor chip CM4, amine coupling kit, HBS (10 mM Hepes, 0.15 M NaCl, pH 7.4) and PBS were from (GE Healthcare, Uppsala, Sweden).
A anti His-tag antibody (R&D Systems, Minneapolis, Minn., USA) at 5 μg/ml in 10 mM sodium acetate pH 4.75 was immobilized onto a series S sensor chip using standard amine-coupling chemistry in HBS running buffer at 10 μl/min (33). The amount of coupled antibody was about 13000 RU. Control surfaces were prepared similarly without protein derivatization and utilized as a reference surfaces for compound binding experiments. Cell-free lysate containing the expressed olfactory receptor was centrifuged for […] at 14000×g at 4° C., to remove larger particles. The supernatant, containing about 0.6 mg/ml olfactory receptor, was immediately captured on the surface plasmon resonance (SPR) chip using PBS and 3% (v/v) DMSO as running buffer at 10 μl/min. […] A 30 sec pulse of coupling reagents was injected to achieve the stable baseline needed for the kinetic assay.
Fresh odorant undecanal solutions were made as follows. Pure odorant was diluted in DMSO to 0.5 M. This solution was diluted 33.3 times in PBS to obtain a […] odorant solution in running buffer with 3% (v/v) DMSO. […]

[4] = tetracycline-induced HEK293S cells

| SMILES | cytosolic Ca2+ response to odorant (hOR17-4 [1]; [4]) | equilibrium dissociation constant (hOR17-4 [2]) | also measured |
| --- | --- | --- | --- |
| C/C=C/c1ccc(OC)cc1 [anithole] | No response | – | – |
| CC(C)(C)c1ccc(CCC=O)cc1 [bourgeonal] | transient Ca^2+ signaling | – | cells responsive to odorant (hOR17-4 [1]; stable-inducible HEK293S cells): ~100%; lowest odorant concentration giving a Ca2+ response (hOR17-4 [1]; tetracycline-induced HEK293S cells, confocal microscopy): ≤ 1 µM |
| CCc1ccc(CC(C)(C)C=O)cc1 [floralozone] | – | low micromolar range | – |
| CC(C=O)Cc1ccc(C(C)(C)C)cc1 (stereo not shown) [lilial] | – | low micromolar range | – |
| CCCCCCCC=O [octanal] | No response | – | – |
| CCCCCCCCCCC=O [undecanal] | – | – | Kd (hOR17-4 [3]; equilibrium binding responses vs concentration fitted to a simple binding isotherm, 25° C., 3% DMSO, read-out: affinity constant, KD): 22 µM and ~22 µM; dose response binding (RU) (hOR17-4 [3]; injections at 1.2, 3.7, 11, 33 and 100 uM): binding response increases by increasing odorant concentration; inhibition of bourgeonal-induced hOR17-4 activation (hOR17-4 [1]; preincubation and co-application of 100 μM with bourgeonal 100 μM): Odorant response could be blocked; also recorded: inhibited hOR17-4 activation by bourgeonal |

— US8748111B2, “Multiplexed olfactory receptor-based microsurface plasmon polariton detector” (Massachusetts Institute of Technology, priority 2008, dated 2014)
